According to patent publication US20130324543A1, “REVERSAL OF HIGH BREAST CANCER RISK IN MAMMALS EXPOSED TO ESTROGENIC CHEMICALS IN UTERO BY ADULT EXPOSURE TO HDAC AND DNMT INHIBITORS” (Georgetown University, priority 2012, published 2013):
“Also recorded” adds a separate entry of the source.

Legend:
[1] = test system: mammary tumors; test: Acquired tamoxifen (TAM) resistance of mammary tumors in in utero exposed rats; format: in vivo; conditions: 14-week follow-up, 7% in the control group
[2] = test system: mammary tumors; test: MPA/DMBA-induced mammary tumorigenesis in mice exposed in utero to EE2 or GEN, with or without adult HDAC+DNMT inhibitors; conditions: mouse, in vivo
Protocol: Time pregnant C57BL/6 female mice were obtained from Harlan (Harlan-Teclad, USA) on gestation day 6, and were randomly assigned into three groups on the following day (gestation day 7). The basic diet formulation in the study was a semi-purified AIN93G (the American Institute of Nutrition) modified to replace soy oil for corn oil; all the diets of the three treatment groups were also purchased from Harlan. The diets were isocaloric, as ethinyl estradiol (EE2) or genistein (GEN) were added in the diet at the expense of comstarch. Additions to the basic diet were as follows: 1) EE2 0.1 ppm, and 2) GEN 500 ppm. EE2 was purchased from Sigma Chemicals (St. Louis, Mo., USA), and GEN was a gift from Dr. William Helferich (University of Illinois, Urbana, Ill., USA).
The pregnant dams were fed these diets until the day of the delivery of their pups (Post Natal Day 0, PND 0). Starting on PND 0, all mice were fed the control diet until the end of the study. Female mice born from the dams fed with the different above mentioned diets were used in the subsequent studies. For study outline, see FIG. 12. Animals were housed in a temperature- and humidity-controlled room under a 12-hour light-dark cycle. All animal procedures were approved by the Georgetown University Animal Care and Use Committee, and the experiments were performed following the National Institutes of Health guidelines for the proper and humane use of animals in biomedical research.
Mammary tumors were induced by administration of a subcutaneous injection of Medroxyprogesterone Acetate (MPA) to mice at 6 weeks of age, followed by administration of 1 mg 7,12-dimethylbenz(a)anthracene (DMBA) (Sigma, St. Louis, Mo.) weekly for four weeks (weeks 7, 8, 9, 10) (23). The carcinogen was dissolved in corn oil and administered by oral gavage in a volume of ca. 0.1 ml.
One week after the last dose of DMBA was administered, some of the mice were started on hydralazine (5 mg/kg/day) and valproic acid treatments (1.16 g/kg/day) treatments.
The two compounds were given in a drinking water, which was prepared fresh twice a week. The doses were chosen based on the literature (24-26). The number of animals in each group is as follows: Control n=18, Control given HDAC+DNMT inhibitors n=9, EE2 n=9, EE2 given HDAC+DNMT inhibitors n=6, GEN n=14, and GEN given HDAC+DNMT inhibitors n=8.
Mice were examined for mammary tumors by palpation once per week. Tumor growth was monitored for 16 weeks after the last dose of DMBA administration. During the follow-up, animals in which tumor burden approximated 10% of total body weight were euthanized, as required by the ethical guidelines of our institution. All surviving animals were sacrificed at that point for sample collection. The end-points for tumor data analysis were (i) latency to tumor appearance, (ii) the number of animals with tumors (tumor incidence), and (iii) the cumulative tumor area (tumor burden). The latter was achieved by adding the total tumor area per group each week and dividing it with the number of mice in the group.
Mammary tumor latency was compared with the final tumor burden in utero EE2 and GEN exposed mice to control mice, and in utero EE2 and GEN exposed mice to control mice exposed to HDAC+DNMT inhibitors separately; analysis was done using one-way ANOVA. Cumulative tumor burden during 16 weeks of tumor monitoring in the three groups, separately in those mice not given HDAC+DNMT inhibitors and those treated with the epigenetic drugs, was analysed using repeated measures one-way ANOVA. Log rank analysis was performed to compare mammary tumor incidence in the control and in utero EE2 and GEN exposed mice, again separately in those mice not given HDAC+DNMT inhibitors and those treated with the epigenetic drugs. Data for changes in DNMT1 expression among the groups in the mammary glands and tumors were assessed using two-way ANOVA, followed by Fisher LSD test

[3] = Puberty onset (vaginal opening) of female mice exposed in utero; format: in vivo, C57BL/6 mice
Protocol: To assess possible changes in sexual maturation due to in utero ECD exposures during embryogenesis, the day of puberty onset was recorded, as defined based on vaginal opening (VO) in female mice. The mice were examined once a day starting on PND 21. In sexually mature mice, the stage of estrus cycle was determined based on the cytology of their vaginal smear (sampled by pipetting 20 μl PBS in and out of vagina onto a slide) as judged under the microscope. Stage of estrus cycle was determined for each mouse before necropsy and sample collection.

[4] = test system: CYP1B1; test: CYP1B1 expression (qRT-PCR) in mammary glands of F1-F3 rat offspring; format: in vivo, Sprague Dawley rats
Protocol: Mammary gland tissue obtained from 50-day-old F1-F3 generation offspring (n=5-6 per group per generation) were used. 1 μg of total RNA per sample was used as a template for random primed cDNA synthesis. The cDNA samples were used as templates for qRT-PCR analysis with specific primers for the target gene, rat CYP1B1 using QuantiTect SYBR green PCR kit (Qiagen Inc., Valencia, Calif.) and an ABI Prism 7900 Sequence Detection System. Each sample was run in triplicate. Absolute gene expression levels were determined using Applied Biosystems' SDS2.3 software and the standard curve method. Concentration of each sample was normalized to the reference gene 18S rRNA.

[5] = Immediate adverse effects of dietary exposure in adult non-pregnant littermates of dams; format: in vivo, mice; conditions: last day of dietary exposure, data not shown
Protocol: For ethical reasons non-pregnant littermate females were used for blood collection instead of the dams, and the samples were taken on the last day of their dietary exposure. Blood was collected by heart puncture of anesthetized mice prior to euthanasia, and serum was separated by centrifugation (1000×g for 10 min) and stored frozen until hormone measurements.
In addition, possible immediate adverse effects of EE2, BPA and GEN exposure for adult mice were evaluated using the non-pregnant littermates of dams. Their body weights were recorded and the mammary gland morphology examined on the last day of their dietary exposure.

In the case of C#C[C@]1(O)CC[C@H]2[C@@H]3CCc4cc(O)ccc4[C@H]3CC[C@@]21C [EE2, ethinyl estradiol], the “acquired resistance to TAM” value [1] is reported as 50%, the “Final tumor burden per mouse” value [2] is reported as “significantly higher” and the Mammary tumor incidence [2] is reported as “significantly higher”. The mammary tumorigenesis [2] was “increased mammary tumorigenesis”, the “puberty onset / vaginal opening” value ([3]; female offspring, in utero exposure) was “significantly earlier puberty onset; also recorded: significantly accelerated” and the puberty onset ([3]; female pups, instead of PND 32) was 27 PND. For the same molecule, the “CYP1B1 expression in normal mammary glands” value ([4]; F1-F3 generation offspring) was “up-regulated”, the “expression levels of CYP1B1” value ([4]; F1 and F2 generations, vs control or HF offspring) was “significantly higher” and the CYP1B1 expression levels ([4]; F3 generation, vs controls) was “higher than in the controls”. For the same molecule, the “body weight or mammary epithelial development” value [5] was “No significant differences”.
